Reference: patent US20160136192A1, “METHODS AND COMPOSITIONS FOR ENHANCING COGNITIVE PERFORMANCE” (ABBOTT LABORATORIES, priority 2013, published 2016)

Tested on: NMDAR dependant hippocampal LTP
Assay: NMDAR dependant LTP (fEPSP amplitude) induced by weak tetanus, recorded on hippocampal brain slices in vitro with MEA
Assay type: cell-based, mice
Conditions: mouse hippocampal slices, 10 stimulations at 100 Hz for 0.1 seconds

Compound	effect on NMDAR dependant hippocampal LTP induced by weak tetanic stimulation (10 micromolar (μM))	effect on NMDAR dependant hippocampal LTP induced by weak tetanic stimulation (15 micromolar)	effect on NMDAR dependant hippocampal LTP induced by weak tetanic stimulation (20 micromolar (μM))	effect on NMDAR dependant hippocampal LTP induced by weak tetanic stimulation (30 micromolar (μM))	effect on NMDAR dependant hippocampal LTP induced by weak tetanic stimulation (40 micromolar)	effect on NMDAR dependant hippocampal LTP induced by weak tetanic stimulation (50 micromolar)
C[N+](C)(C)CCO.[Cl-] [choline chloride, Choline chloride]	did not produce any effect	did not produce any effect	did not produce any effect	significantly enhanced	significantly enhanced	significantly enhanced
CCCCCCCC/C=C\CCCCCCCC(=O)OCC [oleic acid (ethyl ester), Oleic acid ethyl ester]	did not produce any effect		significantly enhanced	significantly enhanced		
